The results in this text go back to ChEMBL document CHEMBL1151294, “Evaluation of limonoids against the murine P388 lymphocytic leukemia cell line” (J Nat Prod, 1983).

Holding throughout (type): functional, organism-based
The test system of assay [1] is P388. The assay can be described thus: In vivo antitumor activity against mouse P388 cells at 0.75 to 6 mg.
In assay [2] the test system is P388. The assay can be described thus: In vivo antitumor activity against mouse P388 cells at 3.7 to 7.5 mg.
Assay [3] deals with P388. The assay can be described thus: In vivo antitumor activity against mouse P388 cells at 2 to 200 mg.
The test system of assay [4] is P388. The assay can be described thus: In vivo antitumor activity against mouse P388 cells at 0.5 to 4 mg.
Assay [5] deals with P388. As to the kind of experiment: In vivo antitumor activity against mouse P388 cells at 0.5 to 8 mg.
The subject of assay [6] is P388. As to the kind of experiment: In vivo antitumor activity against mouse P388 cells at 1.25 to 10 mg.
The test system of assay [7] is P388. As to the kind of experiment: In vivo antitumor activity against mouse P388 cells at 0.25 to 2 mg.
Assay [8] deals with P388. The assay can be described thus: In vivo antitumor activity against mouse P388 cells at 0.01 to 2.4 mg.
Assay [9] has as its system P388. As to the kind of experiment: In vivo antitumor activity against mouse P388 cells at 0.03 to 2 mg.
Assay [10] deals with P388. As to the kind of experiment: In vivo antitumor activity against mouse P388 cells at 0.37 to 6 mg.
Assay [11] deals with P388. The assay can be described thus: In vivo antitumor activity against mouse P388 cells at 1.5 to 24 mg.
Assay [12] relates to P388. The assay can be described thus: In vivo antitumor activity against mouse P388 cells at 0.75 to 12 mg.
In assay [13] the test system is P388. The assay can be described thus: In vivo antitumor activity against mouse P388 cells at 3 to 24 mg.
The test system of assay [14] is P388. The assay can be described thus: In vivo antitumor activity against mouse P388 cells at 1.5 to 12 mg.
Assay [15] has as its system P388. The assay can be described thus: In vivo antitumor activity against mouse P388 cells at 2.5 to 40 mg.
Assay [16] concerns P388. As to the kind of experiment: In vivo antitumor activity against mouse P388 cells at 5 to 20 mg.
Assay [17] relates to P388. The assay can be described thus: In vivo antitumor activity against mouse P388 cells at 1.25 to 2.5 mg.

Active and inactive are the calls of the source. The rule behind the calls is not given here.

Take `CC(C)(O)[C@@H]1CC(=O)[C@]2(C)[C@H](CC[C@@]3(C)[C@@H](c4ccoc4)OC(=O)[C@H]4O[C@]432)[C@@]1(C)/C=C\C(=O)O`: the outcome with P388 [1] was inactive. On the same count and under the same terms, in the case of `CC1(C)O[C@@H](CC(=O)O)[C@]23CO[C@H](C(=O)[C@]4(C)[C@@H]2CC[C@@]2(C)[C@@H](c5ccoc5)OC(=O)[C@H]5O[C@]524)[C@H]13` it was “inactive”. With `C=C1[C@@H]([C@@]2(C)[C@@H](OC(C)=O)CC(=O)O[C@](C)(COC(C)=O)[C@@H]2C(=O)OC)[C@@H](OC=O)[C@H](OC(=O)[C@H](O)[C@H](C)CC)[C@@]2(C)[C@H](c3ccoc3)CC(=O)[C@]12O`, the outcome in the assay with P388 [2] was inactive.

Take `C=C1[C@@H]2CC[C@@]3(C)[C@H](c4ccoc4)OC(=O)C[C@]13O[C@H]1CC(=O)C(C)(C)[C@H](CC(=O)OC)[C@]12C`: in the assay with P388 [3], the result was inactive. For `CC1(C)O[C@H]2CC(=O)OC[C@]23[C@H]2CC[C@@]4(C)[C@@H](c5ccoc5)OC(=O)[C@H]5O[C@]54[C@]2(C)[C@@H](O)C[C@@H]13`, the result in the assay on P388 [1] was inactive. On to `CC1(C)O[C@@H](CC(=O)O)[C@]23CO[C@H](C(=O)[C@]4(C)[C@@H]2CC[C@@]2(C)[C@H]([C@H]5CCOC5)OC(=O)[C@H]5O[C@]524)[C@H]13`, for which, in the assay with P388 [4], the result was inactive. `CC1(C)O[C@H]2CC(=O)OC[C@]23[C@H]2CC[C@@]4(C)[C@@H](c5ccoc5)OC(=O)[C@H]5O[C@]54[C@]2(C)[C@@H](OC(=O)CCl)C[C@@H]13`: in the assay on P388 [5], the outcome was inactive.

For the compound `CC1(C)OC(=O)C=C[C@]2(C)[C@H]3CC[C@]4(C)[C@H](c5ccoc5)C[C@@H]5O[C@@]54[C@]3(C)C(=O)[C@H](O)[C@@H]12`, the result with P388 [6] was inactive. For `CC(=O)O[C@@H]1C[C@H](O)[C@@]23CO[C@H](O)[C@]1(C)[C@@H]2C[C@@H](O)[C@]1(C)[C@@H]3C(=O)C[C@@]2(C)[C@H](c3ccoc3)C[C@H]3O[C@]312`, the outcome in the assay with P388 [7] was inactive. Regarding `CC(=O)O[C@@H]1C[C@H](O)[C@@]23CO[C@H](O)[C@]1(C)[C@@H]2C[C@@H](O)[C@@]1(C)[C@@H]2C(=O)C[C@@H](c4ccoc4)[C@]2(C)CC(=O)[C@@H]13`, the result with P388 [8] was inactive. Turning to `C[C@H]1CC[C@@]23COC(=O)C2=CCC[C@@H]3[C@@]12C[C@H](c1ccoc1)OC2=O`, the outcome in the assay with P388 [9] was inactive. As for `COC(=O)[C@@]1(C)CCC[C@]2(C)C3=C(CC[C@@H]12)C(=O)c1occc1CC3`, the outcome with P388 [10] was inactive. Turning to `CC1(C)C(=O)CC[C@]2(C)[C@H]3CC[C@@]4(C)[C@H](c5ccoc5)OC(=O)[C@H]5O[C@]54[C@]3(C)C(=O)C[C@@H]12`, in the assay with P388 [5], the result was inactive.

In the case of `CC1=C2CC(=O)O[C@H](c3ccoc3)[C@]2(C)CC[C@@H]1[C@@]12COC(=O)C[C@@H]1OC(C)(C)C2CC(=O)O` (stereo partly drawn), the result with P388 [4] was inactive. For `CC1(C)C(=O)C=C[C@]2(C)[C@H]3CC[C@@]4(C)[C@H](c5ccoc5)OC(=O)[C@H]5O[C@]54[C@]3(C)C(=O)C[C@@H]12`, the outcome in the assay on P388 [11] was inactive. On to `CC(=O)OC1[C@@H]2[C@@]3(C)C=C[C@@H](O)[C@](C)(OC(C)=O)[C@@H]3C[C@@H](OC(C)=O)[C@@]2(C)[C@]23O[C@@H]2CC(c2ccoc2)[C@]3(C)[C@H]1OC(=O)C(C)C` (single isomer, unassigned), for which the result in the assay on P388 [12] was inactive.

As to `CC1(C)O[C@H]2CC(=O)OC[C@@]23C1=C(O)C(=O)[C@]1(C)[C@@H]3CC[C@@]2(C)[C@@H](c3ccoc3)OC(=O)[C@H]3O[C@]321`, the outcome in the assay with P388 [4] was inactive. On to `CC(=O)OC1=C2C(C)(C)O[C@H]3CC(=O)OC[C@@]23[C@H]2CC[C@@]3(C)[C@@H](c4ccoc4)OC(=O)[C@H]4O[C@]43[C@]2(C)C1=O`, for which the result in the assay on P388 [4] was inactive. With `C[C@]12C[C@H](c3ccoc3)OC(=O)[C@@H]1CC[C@@]13COC(=O)C1=CCC[C@@H]32`, the outcome in the assay with P388 [7] was inactive. As to `CC(=O)O[C@@H]1C[C@@]2(C)[C@H](c3ccoc3)C[C@H]3O[C@]32[C@]2(C)C(=O)C(O)=C3C(C)(C)C(=O)C=C[C@]3(C)C12` (stereo partly drawn), in the assay with P388 [13], the result was inactive. As for `CC1(C)O[C@H]1[C@H]1C[C@@H]([C@@H]2CC[C@]3(C)C4=CC[C@H]5C(C)(C)C(=O)CC[C@]5(C)[C@H]4CC[C@@]23C)[C@H](O)O1`, the outcome with P388 [14] was inactive. Regarding `CC(=O)O[C@@H]1C[C@@H]2[C@](C)(C=C[C@@H](O)[C@]2(C)OC(C)=O)[C@H]2C(=O)[C@H](OC(C)=O)[C@@]3(C)C(c4ccoc4)C[C@H]4O[C@@]43[C@@]21C` (single isomer, unassigned), the outcome in the assay with P388 [12] was inactive. Regarding `CC1(C)C(=O)C=C[C@]2(C)[C@H]3CC[C@@]4(C)[C@H](c5ccoc5)OC(=O)[C@H]5O[C@]54[C@]3(C)[C@H](O)C[C@@H]12`, in the assay on P388 [11], the outcome was inactive.

Consider `CC1(C)O[C@H]2CC(=O)OC[C@@]23[C@H]1CC(=O)[C@@]1(C)C2=CC(=O)O[C@H](c4ccoc4)[C@]2(C)CC[C@@H]13`, for which the outcome in the assay with P388 [4] was inactive. As to `CC(=O)O[C@H]1[C@@H](OC(C)=O)[C@]2(C)[C@H](CC[C@]3(C)[C@H](c4ccoc4)C[C@@H]4O[C@]423)[C@@]2(C)C=CC(=O)OC(C)(C)[C@H]12`, in the assay with P388 [6], the result was inactive. With `CC(=O)O[C@@H]1C[C@H]2C(C)(C)C(=O)C=C[C@]2(C)[C@H]2CC[C@]3(C)C(=CC(=O)O[C@H]3c3ccoc3)[C@@]21C`, in the assay on P388 [15], the outcome was inactive.

As for `CC(=O)O[C@@H]1C[C@H](O)[C@@]23CO[C@H](O)[C@]1(C)[C@@H]2C[C@@H](O)[C@]1(C)[C@@H]3C(=O)[C@H](O)[C@@]2(C)[C@H](c3ccoc3)C[C@H]3O[C@@]321`, in the assay on P388 [16], the Activity entry is “Toxic”. Moreover, the result in the assay on P388 [17] was inactive.
